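1) Cells in 96-well plates. 2) Compound, 48 h, 5 concentrations. 3) Linear interpolation between surrounding doses. 4) Unreached endpoint = highest concentration. Abbreviation: GI50, concentration required for 50% inhibition of growth.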 Activity calls are given as the source filed them. No stated cut-off is given here; in the data, active = GI50 up to about 1.1 µM and inactive = higher.
Experiments:
Assay in all cases: NCI tumour cell line growth inhibition, 48 h
RXF 631 = test system: RXF 631
Malme-3M = test system: Malme-3M
KM12 = test system: KM12
KM-20L2 = test system: KM-20L2
MOLT-4 = test system: MOLT-4
HOP-62 = test system: HOP-62
SR = test system: SR
HT-29 = test system: HT-29
SK-OV-3 = test system: SK-OV-3
XF498 = test system: XF498
OVCAR-8 = test system: OVCAR-8
RXF 393 = test system: RXF 393
MDA-MB-231 = test system: MDA-MB-231
LXFL 529 = test system: LXFL 529
NCI-H522 = test system: NCI-H522
IGROV-1 = test system: IGROV-1
U-251 = test system: U-251
CAKI-1 = test system: CAKI-1
A549 = test system: A549
HL-60 = test system: HL-60
HCT-116 = test system: HCT-116
OVCAR-5 = test system: OVCAR-5
SN12C = test system: SN12C
HCT-15 = test system: HCT-15
UACC-257 = test system: UACC-257
SNB-75 = test system: SNB-75
SF-295 = test system: SF-295
DMS-114 = test system: DMS-114
NCI-H226 = test system: NCI-H226
UO-31 = test system: UO-31
SK-MEL-2 = test system: SK-MEL-2
UACC-62 = test system: UACC-62
SK-MEL-5 = test system: SK-MEL-5
MDA-N = test system: MDA-N
M14 = test system: M14
SF-268 = test system: SF-268
MDA-MB-435 = test system: MDA-MB-435
T47D = test system: T47D
MCF7 = test system: MCF7
HOP-92 = test system: HOP-92
K562 = test system: K562
ACHN = test system: ACHN
DU-145 = test system: DU-145
SF-539 = test system: SF-539
COLO 205 = test system: COLO 205
786-0 = test system: 786-0
CCRF-CEM = test system: CCRF-CEM
SK-MEL-28 = test system: SK-MEL-28
DMS-273 = test system: DMS-273
EKVX = test system: EKVX
OVCAR-4 = test system: OVCAR-4
TK-10 = test system: TK-10
NCI/ADR-RES = test system: NCI/ADR-RES
PC-3 = test system: PC-3
SW-620 = test system: SW-620
OVCAR-3 = test system: OVCAR-3
LOX IMVI = test system: LOX IMVI
RPMI-8226 = test system: RPMI-8226
NCI-H23 = test system: NCI-H23
HCC 2998 = test system: HCC 2998
SNB-19 = test system: SNB-19
NCI-H460 = test system: NCI-H460
M19-MEL = test system: M19-MEL
BT-549 = test system: BT-549
Hs-578T = test system: Hs-578T
HOP-18 = test system: HOP-18
SNB-78 = test system: SNB-78
DLD-1 = test system: DLD-1
A498 = test system: A498

## COc1cc(Nc2nc3c(N)cc(C(F)(F)F)cc3nc2-c2ccccc2)cc(OC)c1OC
RXF 631
  GI50: > 44.5 µM (inactive)
Malme-3M
  GI50: 41.1 µM (inactive)
KM12
  GI50: 72.8 µM (inactive)
KM-20L2
  GI50: > 65.5 µM (inactive)
MOLT-4
  GI50: > 100 µM (inactive)
HOP-62
  GI50: 26.3 µM (inactive)
SR
  GI50: > 87.5 µM (inactive)
HT-29
  GI50: > 92.5 µM (inactive)
SK-OV-3
  GI50: 42.5 µM (inactive)
XF498
  GI50: 19.1 µM (inactive)
OVCAR-8
  GI50: 24.5 µM (inactive)
RXF 393
  GI50: 1.98 µM (inactive)
MDA-MB-231
  GI50: > 42.5 µM (inactive)
LXFL 529
  GI50: 63.5 µM (inactive)
NCI-H522
  GI50: 28.4 µM (inactive)
IGROV-1
  GI50: 55.3 µM (inactive)
U-251
  GI50: 26.1 µM (inactive)
CAKI-1
  GI50: 45.4 µM (inactive)
A549
  GI50: 49.5 µM (inactive)
HL-60
  GI50: > 100 µM (inactive)
HCT-116
  GI50: > 74.3 µM (inactive)
OVCAR-5
  GI50: > 100 µM (inactive)
SN12C
  GI50: 43 µM (inactive)
HCT-15
  GI50: > 94.6 µM
UACC-257
  GI50: 63 µM (inactive)
SNB-75
  GI50: 17 µM (inactive)
SF-295
  GI50: 16.6 µM (inactive)
DMS-114
  GI50: 81.8 µM (inactive)
NCI-H226
  GI50: 61.1 µM (inactive)
UO-31
  GI50: > 100 µM (inactive)
SK-MEL-2
  GI50: 51.4 µM (inactive)
UACC-62
  GI50: 43.1 µM (inactive)
SK-MEL-5
  GI50: 19.1 µM (inactive)
MDA-N
  GI50: > 80.7 µM (inactive)
M14
  GI50: 66.2 µM (inactive)
SF-268
  GI50: 33.4 µM (inactive)
MDA-MB-435
  GI50: > 69.2 µM (inactive)
T47D
  GI50: 14.1 µM (inactive)
MCF7
  GI50: 67.3 µM (inactive)
HOP-92
  GI50: 1.39 µM (inactive)
K562
  GI50: > 100 µM (inactive)
ACHN
  GI50: 42.9 µM (inactive)
DU-145
  GI50: > 100 µM (inactive)
SF-539
  GI50: 28.1 µM (inactive)
COLO 205
  GI50: 99.3 µM (inactive)
786-0
  GI50: 24.3 µM (inactive)
CCRF-CEM
  GI50: > 100 µM (inactive)
SK-MEL-28
  GI50: 57 µM (inactive)
DMS-273
  GI50: 37.9 µM (inactive)
EKVX
  GI50: > 100 µM (inactive)
OVCAR-4
  GI50: 15 µM (inactive)
TK-10
  GI50: 29.2 µM (inactive)
NCI/ADR-RES
  GI50: > 53.2 µM (inactive)
PC-3
  GI50: 37.2 µM (inactive)
SW-620
  GI50: > 90.4 µM (inactive)
OVCAR-3
  GI50: 57.1 µM (inactive)
LOX IMVI
  GI50: 72.1 µM (inactive)
RPMI-8226
  GI50: > 100 µM (inactive)
NCI-H23
  GI50: 70.3 µM (inactive)
HCC 2998
  GI50: > 100 µM (inactive)
SNB-19
  GI50: 25.8 µM (inactive)
NCI-H460
  GI50: 37.2 µM (inactive)
M19-MEL
  GI50: > 82.2 µM (inactive)
BT-549
  GI50: 35.5 µM (inactive)
Hs-578T
  GI50: 22.3 µM (inactive)
HOP-18
  GI50: 29.8 µM (inactive)

## Cc1nc(N)nc(N)c1CCCCc1ccccc1
RXF 631
  GI50: 11.9 µM (inactive)
Malme-3M
  GI50: 13.3 µM (inactive)
KM12
  GI50: 18.1 µM (inactive)
KM-20L2
  GI50: 10.8 µM (inactive)
MOLT-4
  GI50: 5.3 µM (inactive)
HOP-62
  GI50: 13.6 µM (inactive)
SR
  GI50: 13.3 µM (inactive)
HT-29
  GI50: 2.47 µM (inactive)
SK-OV-3
  GI50: 31.9 µM (inactive)
OVCAR-8
  GI50: 8.2 µM (inactive)
RXF 393
  GI50: 11.1 µM (inactive)
SNB-78
  GI50: 35.3 µM (inactive)
LXFL 529
  GI50: 9.89 µM (inactive)
NCI-H522
  GI50: 10.2 µM (inactive)
IGROV-1
  GI50: 5.41 µM (inactive)
U-251
  GI50: 11.2 µM (inactive)
DLD-1
  GI50: 6.15 µM (inactive)
CAKI-1
  GI50: 23.4 µM (inactive)
A549
  GI50: 3.67 µM (inactive)
HL-60
  GI50: 4.55 µM (inactive)
HCT-116
  GI50: 5.21 µM (inactive)
OVCAR-5
  GI50: 6.93 µM (inactive)
SN12C
  GI50: 22.6 µM (inactive)
HCT-15
  GI50: 5.97 µM
UACC-257
  GI50: 10.2 µM (inactive)
SNB-75
  GI50: 47 µM (inactive)
SF-295
  GI50: 6.65 µM (inactive)
DMS-114
  GI50: 5.02 µM (inactive)
UO-31
  GI50: 19.4 µM (inactive)
A498
  GI50: 18.2 µM (inactive)
SK-MEL-2
  GI50: 16.7 µM (inactive)
UACC-62
  GI50: 5.28 µM (inactive)
SK-MEL-5
  GI50: 4.39 µM (inactive)
M14
  GI50: 6.21 µM (inactive)
SF-268
  GI50: 11 µM (inactive)
HOP-92
  GI50: 22.5 µM (inactive)
K562
  GI50: 0.841 µM (active)
ACHN
  GI50: 9.2 µM (inactive)
SF-539
  GI50: 10.7 µM (inactive)
COLO 205
  GI50: 8.43 µM (inactive)
786-0
  GI50: 4.52 µM (inactive)
CCRF-CEM
  GI50: 3.72 µM (inactive)
SK-MEL-28
  GI50: > 10 µM (inactive)
DMS-273
  GI50: 4.7 µM (inactive)
EKVX
  GI50: 20 µM (inactive)
OVCAR-4
  GI50: 58.6 µM (inactive)
TK-10
  GI50: 43.2 µM (inactive)
SW-620
  GI50: 13.7 µM (inactive)
OVCAR-3
  GI50: 9.95 µM (inactive)
LOX IMVI
  GI50: 5.83 µM (inactive)
RPMI-8226
  GI50: 20.8 µM (inactive)
NCI-H23
  GI50: 4.29 µM (inactive)
HCC 2998
  GI50: 10.7 µM (inactive)
SNB-19
  GI50: 32.4 µM (inactive)
NCI-H460
  GI50: 3.32 µM (inactive)
M19-MEL
  GI50: 12.4 µM (inactive)
HOP-18
  GI50: 42.1 µM (inactive)

## Cc1cccc(-n2c(=S)[nH]c3c(sc(=O)n3-c3ccccc3C)c2=O)c1
RXF 631
  GI50: > 100 µM (inactive)
Malme-3M
  GI50: > 100 µM (inactive)
KM12
  GI50: > 100 µM (inactive)
KM-20L2
  GI50: > 100 µM (inactive)
MOLT-4
  GI50: > 100 µM (inactive)
HOP-62
  GI50: > 100 µM (inactive)
SR
  GI50: > 100 µM (inactive)
HT-29
  GI50: > 100 µM (inactive)
SK-OV-3
  GI50: > 100 µM (inactive)
OVCAR-8
  GI50: > 100 µM (inactive)
RXF 393
  GI50: > 100 µM (inactive)
SNB-78
  GI50: > 100 µM (inactive)
LXFL 529
  GI50: > 100 µM (inactive)
NCI-H522
  GI50: > 100 µM (inactive)
IGROV-1
  GI50: > 100 µM (inactive)
U-251
  GI50: > 100 µM (inactive)
DLD-1
  GI50: > 100 µM (inactive)
CAKI-1
  GI50: > 100 µM (inactive)
A549
  GI50: > 100 µM (inactive)
HL-60
  GI50: > 100 µM (inactive)
HCT-116
  GI50: > 100 µM (inactive)
OVCAR-5
  GI50: > 100 µM (inactive)
SN12C
  GI50: > 100 µM (inactive)
HCT-15
  GI50: > 100 µM
UACC-257
  GI50: > 100 µM (inactive)
SNB-75
  GI50: > 100 µM (inactive)
SF-295
  GI50: > 100 µM (inactive)
DMS-114
  GI50: > 100 µM (inactive)
NCI-H226
  GI50: > 100 µM (inactive)
UO-31
  GI50: > 100 µM (inactive)
A498
  GI50: > 100 µM (inactive)
SK-MEL-2
  GI50: > 100 µM (inactive)
UACC-62
  GI50: > 100 µM (inactive)
SK-MEL-5
  GI50: > 100 µM (inactive)
M14
  GI50: > 100 µM (inactive)
SF-268
  GI50: > 100 µM (inactive)
HOP-92
  GI50: > 100 µM (inactive)
K562
  GI50: > 100 µM (inactive)
ACHN
  GI50: > 100 µM (inactive)
SF-539
  GI50: > 100 µM (inactive)
COLO 205
  GI50: > 100 µM (inactive)
786-0
  GI50: > 100 µM (inactive)
CCRF-CEM
  GI50: > 100 µM (inactive)
SK-MEL-28
  GI50: > 100 µM (inactive)
DMS-273
  GI50: > 100 µM (inactive)
EKVX
  GI50: > 100 µM (inactive)
OVCAR-4
  GI50: > 100 µM (inactive)
SW-620
  GI50: > 100 µM (inactive)
OVCAR-3
  GI50: > 100 µM (inactive)
RPMI-8226
  GI50: > 100 µM (inactive)
NCI-H23
  GI50: > 100 µM (inactive)
HCC 2998
  GI50: > 100 µM (inactive)
SNB-19
  GI50: > 100 µM (inactive)
NCI-H460
  GI50: > 100 µM (inactive)
M19-MEL
  GI50: > 100 µM (inactive)
HOP-18
  GI50: > 100 µM (inactive)

Source: ChEMBL document CHEMBL1201862, “PubChem BioAssay data set” (2004)
